Read-outs that look alike come from different tables or passages of the source. Bounds are passed on as bounds.

In general, IC50 refers to the concentration needed to halve the response being measured.

What all share (assay type): cell-based
A short description of data set [1]: Compound toxicity in the attachment assay, sister plates, MTS dye reduction. Particulars: human, HeLa CD4 LTR β-gal cells, read-out: TC50. The procedure: At assay termination the assay plates were stained with the soluble tetrazolium-based dye MTS (CellTiter96® Reagent Promega) to determine cell viability and quantify compound toxicity. MTS is metabolized by the mitochondria enzymes of metabolically active cells to a soluble formazan product, allowing the rapid quantitative analysis cell viability and compound cytotoxicity. […] At termination of the assay 20 μL of MTS reagent was added per well and incubated for 4 h at 37° C. Adhesive plate sealers were used in place of the lids, the sealed plate was inverted several times to mix the soluble formazan product and the plate was read spectrophotometrically at 490 nm with a Molecular Devices Vmax plate reader.
The attachment assay was performed with the HeLa CD4 LTR β-gal cells available from the AIDS Research and Reference Reagent Repository. […] HeLa CD4 LTR β-gal cells express cell surface CD4 and contain an LTR β-galactosidase reporter construct. Upon infection either the Tat protein incorporated into the virion or new Tat produced following virus integration and transcription trans-activates the LTR β-gal reporter, leading to expression of the β-galactosidase enzyme. HeLa CD4 LTR β-gal cells are routinely cultured with the required selection antibiotics and screened for mycoplasma contamination. Twenty-four h prior to initiation of the assay cells were trypsinized, counted and 1×10^4 cells placed in a 0.2 cm well in media without selection antibiotics. […] A known titer of virus was then added to the wells and the incubation continued for 1 h. At the end of the incubation the wells were washed 6 times with media and the culture continued for 48 h. At 48 h the wells were washed one time with PBS and β-galactosidase enzyme expression determined by chemiluminescence per manufacturers instructions (Tropix Gal-screen™, Tropix, Bedford, Mass.). Compound toxicity was monitored on sister plates using MTS dye reduction.

The test system of data set [2] is HIV-1 strain RoJo. The data set can be described thus: PBMC time of addition assay (RT activity in supernatant at 6 days). To be noted: for IC50: Human immunodeficiency virus 1, PBMC; for fold regain of potency (decrease in IC50): after the loss at 2 h. From the text: Human peripheral blood mononuclear cells (PBMCs) from a minimum of 2 donors, that have been blasted with PHA and IL-2, were counted, viability determined by Trypan Blue dye exclusion and mixed in equal ratios. Pooled donors were used to minimize the variability observed between individual donors which results from quantitative and qualitative differences in HIV infection and overall response to the PHA and IL-2 of primary lymphocyte populations. The cells were resuspended at 1×10^6 cells /mL in RPMI 1640 without phenol red supplemented with 15% Fetal Bovine Serum (heat inactivated), 2 mM L-glutamine, 100 U/mL penicillin, 100 μg/mL streptomycin, 10 μg/mL gentamycin and IL-2 (20 U/mL, R&D Systems, Minneapolis, Minn.). Fifty microliters of cells were then distributed to the inner 60 wells of a 96 well round bottom microtiter culture plate in a standard format developed by the Infectious Disease Research department of Southern Research Institute. Each plate contains cell control wells (cells only), virus control wells (cells plus virus), and experimental wells (drug plus cells plus virus). Alternatively, cells were cultured in T25 cm^2 or T75 cm^2 tissue culture flasks at a starting density of 1×10^6 cells per ml. Serially diluted compounds were added to the microtiter plate or tissue culture flask followed by the appropriate pre-titered strain of HIV-1. For virus replication inhibition experiments the HIV-1 strain RoJo was used. This is a low passage presumable subtype B pediatric isolate with a syncytium inducing (SI) phenotype in MT-2 cells isolated by Southern Research Institute personnel. All samples were assayed in triplicate where possible with an accompanying determination of compound toxicity. The final volume per well in the microtiter plates was 200 μL. The final volume in the tissue culture flask varied depending upon experimental design and flask size. Assays were incubated for 6 days in a humidified atmosphere at 37° C., 5% CO^2, after which supernatants were collected, for analysis of RT activity and cell viability by MTS dye reduction. Culture were also examined microscopically, any abnormalities noted, and in the case of tissue culture flasks cell counts and viability determined by Trypan Blue Dye exclusion.
Time of addition assays were performed with PBMCs in two ways. For both assays, PBMCs were isolated and cultured under the conditions as described above. Time of addition assays were carried out in either a tissue culture flask format (T-75 cm^2) or in microtiter wells. In both cases due to the lack of plastic adherence and heterogeneity of the PBMC population for susceptibility to infection, it was not possible to use complete removal of virus following a timed adsorption to synchronize the infection and limit the assay to a single round of infection. Therefore, serial washing by partial removal of the media was used to reduce the concentration of virus and compound (if required) in the assay. Compound addition in relationship to antiviral activity was either assessed over a short addition interval immediately before or after virus addition or for up to 72 h post infection. For all assays virus replication was assessed at 6 days of culture by determining RT expression in cell-free supernatants. In the tissue culture flask format cells were counted and Trypan Blue Dye exclusion used to monitor compound cytotoxicity. Cell viability in the 96 well microtiter plate format was determined by MTS dye reduction. AZT was used as a positive control.
Reverse transcriptase activity was measured in cell-free supernatants. Tritiated thymidine triphosphate (NEN) (TTP) was resuspended in distilled H2O at 5 Ci/mL. Poly rA and oligo dT were prepared as a stock solution which was kept at −20° C. The RT reaction buffer was prepared fresh on a daily basis and consists of 125 μL 1.0 M EGTA, 125 μL dH2O, 110 μL 10% SDS, 50 μL 1.0 M Tris (pH 7.4), 50 μL 1.0 M DTT, and 40 μL 1.0 M MgCl2. […]

Data set [3] can be described thus: Compound toxicity in the fusion assay, sister plate, XTT or MTS (Example 2). Particulars: human, HeLa CD4 LTR β-gal cells, read-out: Fusion Assay TC50. The procedure:
The fusion assay assesses the ability of compounds to block cell-to-cell fusion mediated by HIV-1 Env and CD4 expressed on separate cells. This assay is sensitive to inhibitors of both the gp 120/CD4 interaction and inhibitors of the X4 coreceptor. HeLa CD4 LTR β-gal cells were plated in microtiter wells and diluted compounds are added and allowed to incubate at 37° C. for 1 hr prior to the addition of HL2/3 cells. The incubation was then continued for 40 to 48 h, after which fusion is monitored by measurement of β-galactosidase enzyme expression, detectable by chemiluminescence (Tropix Gal-screen, Tropix, Bedford, Mass.). Compound toxicity is monitored on a sister plate using XTT or MTS dye reduction. All determinations are performed in triplicate with serial_Log10 dilution of the test materials.

The mark [4] stands for this setting: addition prior to infection, pre-treatment 0 h.
Setting [5] is: addition prior to infection, pre-treatment 2 h.
The mark [6] stands for this setting: addition prior to infection, pre-treatment 4 h.
Where [7] appears, read: addition prior to infection, pre-treatment 24 h.

Turning to `Cc1ccc2c(c1)-c1c(O)cc(C(C)(C)CCCC(C)C)cc1OC2(C)C` [IMG511, 3-Norpentyl-3-(1,1,5-trimethylhexyl)cannabinol], the CC50 at 48 h in data set [1] (Experiment 1, pretreat 0 h) is greater than 50 µM; in data set [1] (Experiment 1, pretreat 4 h), greater than 50 µM; in data set [1] (Experiment 1, pretreat 24 h) it was greater than 50 µM; in data set [1] (Experiment 2, pretreat 0 h), greater than 50 µM; in data set [1] (Experiment 2, pretreat 4 h) it was greater than 50 µM; in data set [1] (Experiment 2, pretreat 24 h), 11.1 µM. In addition, in data set [2] (24 h pretreatment), the “fold increase in IC50” value is recorded as 5-fold increase in IC50. Also, the IC50 was 15.2 µM in data set [2] (4 h, treatment −4 h pre); 9.3 µM in data set [2] (6 h, treatment 6 h post); 6.6 µM in data set [2] (setting [4]); 9.4 µM in data set [2] (setting [5]); 11.7 µM in data set [2] (setting [6]); 33.2 µM in data set [2] (setting [7]). Besides, the IC50 in data set [2] (treatment at infection) was 16.9 µM. The CC50 in data set [3] worked out at 20.7 µM.

As for `COc1cc(C(C)(C)CCCC(C)C)cc(OC)c1OC` [IMG507, 1-(1,1,5-Trimethylhexyl)-3,4,5-trimethoxybenzene], the CC50 at 48 h in data set [1] (Experiment 1, pretreat 0 h) was greater than 50 µM; in data set [1] (Experiment 1, pretreat 4 h), greater than 50 µM; in data set [1] (Experiment 1, pretreat 24 h) it was greater than 50 µM; in data set [1] (Experiment 2, pretreat 0 h), greater than 50 µM; in data set [1] (Experiment 2, pretreat 4 h) it was greater than 50 µM; in data set [1] (Experiment 2, pretreat 24 h), greater than 50 µM. The “fold increase in IC50” value in data set [2] (24 h pretreatment) is listed as “approximately 2 fold”. For the same compound, the IC50 in data set [2] (4 h, treatment −4 h pre) worked out at 39.5 µM; in data set [2] (6 h, treatment 6 h post) it was 46.1 µM; in data set [2] (setting [4]), 6.9 µM; in data set [2] (setting [5]), 6.1 µM; in data set [2] (setting [6]), 5.3 µM; in data set [2] (setting [7]) it was 10.8 µM. This compound also showed an IC50 in data set [2] (treatment at infection) of 67 µM.

As for `CC1=CCC2C(C1)c1c(O)cc(C(C)(C)CCCC(C)C)cc1OC2(C)C` (stereo not drawn) [IMG509, 3-Norpentyl-3-(1,1,5-trimethylhexyl)-Δ8-tetrahydrocannabinol], the CC50 at 48 h in data set [1] (Experiment 1, pretreat 0 h) was greater than 50 µM; in data set [1] (Experiment 1, pretreat 4 h), greater than 50 µM; in data set [1] (Experiment 1, pretreat 24 h), greater than 50 µM; in data set [1] (Experiment 2, pretreat 0 h), greater than 50 µM; in data set [1] (Experiment 2, pretreat 4 h) it was 37 µM; in data set [1] (Experiment 2, pretreat 24 h), 14.9 µM. The “fold decrease in IC50” value in data set [2] (24 h pretreatment) is listed as “approximately 2 fold”. In addition, the IC50 is 19.6 µM in data set [2] (4 h, treatment −4 h pre); 10 µM in data set [2] (6 h, treatment 6 h post); 9.3 µM in data set [2] (setting [4]); 11 µM in data set [2] (setting [5]); 12.6 µM in data set [2] (setting [6]); 6.6 µM in data set [2] (setting [7]). The compound also returned an IC50 in data set [2] (treatment at infection) of 17.5 µM. In data set [3], the CC50 worked out at 18.4 µM.

For `C=C(C)[C@@H]1CCC(C)=C[C@H]1c1c(O)cc(CCCCC)cc1O` [Cannabidiol, reference compound], the CC50 at 48 h was greater than 50 µM in data set [1] (Experiment 1, pretreat 0 h); greater than 50 µM in data set [1] (Experiment 1, pretreat 4 h); greater than 50 µM in data set [1] (Experiment 1, pretreat 24 h); greater than 50 µM in data set [1] (Experiment 2, pretreat 0 h); 41 µM in data set [1] (Experiment 2, pretreat 4 h); 33 µM in data set [1] (Experiment 2, pretreat 24 h). In addition, the “fold loss of activity (potency)” value in data set [2] (2 h pretreatment, listed as cannabidiol) is listed as “approximately 10 fold”. The “fold regain of potency (decrease in IC50)” value in data set [2] (4 h pretreatment) is listed as “activity at 2 , regain 3.3-fold”; in data set [2] (4 h pretreatment, listed as cannabidiol), 3.3 fold. The “fold increase in IC50” value is given as “fold at 4 h then a 17-” in data set [2] (24 h pretreatment) and 17 fold in data set [2] (24 h pretreatment, listed as cannabidiol). Besides, the IC50 in data set [2] (addition prior to infection, pre-treatment 0 h, read-out: IC50) was 0.58 µM; in data set [2] (addition prior to infection, pre-treatment 2 h, read-out: IC50) it was 5 µM; in data set [2] (addition prior to infection, pre-treatment 4 h, read-out: IC50), 1.5 µM.

For the compound `Cc1c(O)cc(C(C)(C)CCCC(C)C)cc1O` [IMG510, 2-Methyl-5-(1,1,5-trimethylhexyl)resorcinol], the CC50 at 48 h is greater than 50 µM in data set [1] (Experiment 1, pretreat 0 h); greater than 50 µM in data set [1] (Experiment 1, pretreat 4 h); greater than 50 µM in data set [1] (Experiment 1, pretreat 24 h); greater than 50 µM in data set [1] (Experiment 2, pretreat 0 h); greater than 50 µM in data set [1] (Experiment 2, pretreat 4 h); 39.4 µM in data set [1] (Experiment 2, pretreat 24 h). Also, in data set [2] (2 h pretreatment), the “fold decrease in IC50” value was 9.5-fold decrease in. Further, the IC50 in data set [2] (4 h, treatment −4 h pre) came to 17.7 µM; in data set [2] (6 h, treatment 6 h post) it was 14.4 µM; in data set [2] (setting [4]), 13.4 µM; in data set [2] (setting [5]), 1.4 µM; in data set [2] (setting [6]), 11.5 µM; in data set [2] (setting [7]), 9.5 µM. In addition, the IC50 in data set [2] (treatment at infection) was 16.1 µM. Also, the CC50 in data set [3] was greater than 100 µM.

As for `CC(C)=CCCC1(C)CCc2c(O)cc(C(C)(C)CCCC(C)C)cc2O1` (stereo not drawn) [IMG508, 3,4-Dihydro-2-methyl-2-(4-methyl-3-pentenyl)-7-(1,1,5-trimethylhexyl)-2H-1-benzopyran-5-ol], the CC50 at 48 h in data set [1] (Experiment 1, pretreat 0 h) was greater than 50 µM; in data set [1] (Experiment 1, pretreat 4 h), greater than 50 µM; in data set [1] (Experiment 1, pretreat 24 h), greater than 50 µM; in data set [1] (Experiment 2, pretreat 0 h), greater than 50 µM; in data set [1] (Experiment 2, pretreat 4 h), 29 µM; in data set [1] (Experiment 2, pretreat 24 h), 12.2 µM. Further, the “fold decrease in IC50” value in data set [2] (4 h pretreatment) is reported as 4-fold decrease in IC50. Besides, the IC50 came to 6.2 µM in data set [2] (4 h, treatment −4 h pre); 22.5 µM in data set [2] (6 h, treatment 6 h post); 14.2 µM in data set [2] (setting [4]); 10.4 µM in data set [2] (setting [5]); 4.1 µM in data set [2] (setting [6]); 11.9 µM in data set [2] (setting [7]). Moreover, it took 15.7 µM to reach half-maximal inhibition in data set [2] (treatment at infection) (IC50).
